Data: patent publication US11220482B2, “Aminopyridinemethanol compounds and their use” (UNIVERSITE AMIENS PICARDIE JULES VERNE, priority 2017, dated 2022)
Like-named read-outs stand apart in the source and are kept apart here.

Key:
CHO-K1 cells [1] = experiment: In vitro micronucleus assay, short-term exposure; conditions: for MNC-M (mean of micronucleated cell rates): Chinese hamster, 3 h
Method: All the assays were conducted in duplicate. The CHO-K1 cells, suspended in McCoy's 5A medium, were transferred into Labteck wells at a concentration of 100,000 cells/mL, and incubated for 24 hours at 37° C. in CO2 (5%).
When the test was performed without metabolic activation, the test substances were added into cell cultures at concentrations previously defined.
When the assay was performed in the presence of metabolic activation, S9 mix metabolizing mixture was added to cell cultures at a concentration of 10%. Then the test substances were added to the cell cultures at concentrations previously defined.
After 3 hours of incubation at 37° C. in CO2 (5%), the culture medium was removed, the cells were rinsed with phosphate buffered saline (PBS), and then returned to culture in McCoy's 5A medium containing […] of cytochalasin B. After a 21-hour incubation period at 37° C., cells were rinsed with phosphate buffered saline (PBS), fixed with methanol and stained with 10% Giemsa for 20 minutes.
(§1) The analysis of results was performed under a microscope at ×1000 magnification. The antiproliferative activity of test substances was estimated by counting the number of binucleated cells relative to the number of mononucleated cells on a total of 500 cells for each dose (250 cells counted per well). The proliferation index (Cytokinesis Blocked Proliferative Index CBPI) was calculated using the following formula:
(§2) The cytostasis index (CI %), i.e. the percentage of cell replication inhibition, was calculated using the following formula: CI %−100−{100×(CBPItest material−1)/(CBPIsolvent control−1)}
(§3) The rates of micronuclei were evaluated for the presence of independent nuclear core entities in 1000 binucleated cells per well, which corresponds to 2000 cells examined by test substance dose. Micronuclei were identified as small nuclei well differentiated from cell nucleus, stained in the same manner and having a diameter less than one third of that of the cell nucleus.
(§4) Micronuclei rates obtained for different doses of test substances were compared to the negative control by a χ2 test. The assay was considered positive if: • A dose-response relationship was obtained between the rate of micronuclei and the doses tested, • At least one of these doses induced a statistically significant increase (P<0.05) in the number of micronucleated cells as compared to the negative control.

Plasmodium falciparum W2 = experiment: Plasmodium falciparum susceptibility assay, first round (SYBR Green I); assay type: cell-based; conditions: W2, first round, 48-h incubation, strain resistant to CQ, sensitive to MQ, read-out: IC50 (nM) Plasmodium falciparum W2 (converted)
CHO-K1 cells [2] = conditions: Chinese hamster, 24 h
Method: All the assays were conducted in duplicate. The CHO-K1 cells, suspended in Mac Coy's 5A medium, were transferred into Labteck wells at a concentration of 100,000 cells/mL, and incubated for 24 hours at 37° C. in CO2 (5%).
The test was performed without metabolic activation: the test substances were added into cell cultures at concentrations previously defined. […] After 24 hours of incubation at 37° C. in CO2 (5%), the culture medium was removed, the cells were rinsed with phosphate buffered saline (PBS), and then returned in culture medium containing […] of cytochalasine B. After a 24-hour incubation period at 37° C., cells were rinsed with phosphate buffered saline (PBS), fixed with methanol and stained with 10% Giemsa for 20 minutes.
as §1, §2, §3, §4

S. typhimurium TA98 = experiment: Bacterial reverse mutation assay (Ames test)
[3] = test system: Plasmodium falciparum 3D7; experiment: Plasmodium falciparum susceptibility assay, first round (SYBR Green I); assay type: cell-based; conditions: 3D7, first round, 48-h incubation, strain susceptible to CQ, decreased susceptibility to MQ, read-out: IC50 (nM) Plasmodium falciparum 3D7 (converted)
Salmonella strains = experiment: Bacterial reverse mutation assay (Ames test), overall conclusion; assay type: cell-based, S. typhimurium; conditions: all tested doses, absence or presence of the metabolizing mixture
Method: Five strains of S. typhimurium were used. […] An additional strain has been chosen to detect cross-linking mutagens, hydrazines and oxidative agents: TA102, which have an AT base pair at the primary reversion site. Salmonella tester strains were gifts from Prof. B. N. Ames (Berkeley, Calif., USA). They were stored at −80° C. and regularly checked for genetic markers.
Few crystals of the frozen working strains were taken with a sterile pipette, and seeded in 10 mL of nutrient broth (NB No 2, Oxoid). Strains were grown overnight at 37° C. with shaking in Nutrient Broth No. 2, with ampicillin (25 μg/mL) for TA1535, TA97a, TA98, and TA 100, or ampicillin (25 μg/mL) plus tetracyclin (2 μg/mL) for TA 102. At the end of the incubation period, 0.1 mL of each overnight culture was mixed to 0.1 mL S9 Mix or 0.1 mL phosphate-buffered saline (PBS, pH 7.4) in 5 mL plastic tubes and various volumes of the tested samples were added to the mixtures. Each experiment included triplicate plates of four tested doses. A solvent (DMSO, 10 μL) control was added to determine the spontaneous frequency of revertants (quadruple plates). Five positive controls were also included to ensure the performance of the tester strains and the S9 Mix. […] After hardening, the plates were incubated at 37° C. for 48 hours.
At the end of the incubation period, revertants were counted with a laser colony counter equipped with a bacterial enumeration program (Spiral System Instrument Inc., Bethesda, Md., USA).
The Dunnett test was performed to determine a significant difference between the mean number of induced revertants and the mean number of spontaneous revertants.

[4] = Table 18 second section, "Test without S9 mix", 0.4 μg/plate
[5] = Table 18 second section, "Test without S9 mix", 0.6 μg/plate
[6] = Table 18 second section, "Test without S9 mix", 0.8 μg/plate
[7] = Table 18 second section, "Test without S9 mix", 1 μg/plate

CCCCCNC[C@@H](O)c1cc(-c2ccc(C(F)(F)F)cc2)nc(C(F)(F)F)c1 [Compound 1a]
Number of revertants by plate (Means ± SD), TA97a (S. typhimurium TA97a; [4]): 128 ± 8^NS
Number of revertants by plate (Means ± SD), TA97a (S. typhimurium TA97a; [5]): 133 ± 4^NS
Number of revertants by plate (Means ± SD), TA97a (S. typhimurium TA97a; [6]): 147 ± 10^NS
Number of revertants by plate (Means ± SD), TA97a (S. typhimurium TA97a; [7]): 151 ± 6^NS
Number of revertants by plate (Means ± SD), TA97a (S. typhimurium TA97a; without S9 mix, 0.4 μg/plate): 161 ± 8^NS
Number of revertants by plate (Means ± SD), TA97a (S. typhimurium TA97a; without S9 mix, 0.6 μg/plate): 155 ± 6^NS
Number of revertants by plate (Means ± SD), TA97a (S. typhimurium TA97a; without S9 mix, 0.8 μg/plate): 159 ± 8^NS
Number of revertants by plate (Means ± SD), TA97a (S. typhimurium TA97a; without S9 mix, 1 μg/plate): 154 ± 9^NS
Number of revertants by plate (Means ± SD), TA102 (S. typhimurium TA102; [4]): 387 ± 8^NS
Number of revertants by plate (Means ± SD), TA102 (S. typhimurium TA102; [5]): 395 ± 9^NS
Number of revertants by plate (Means ± SD), TA102 (S. typhimurium TA102; [6]): 379 ± 8^NS
Number of revertants by plate (Means ± SD), TA102 (S. typhimurium TA102; [7]): 378 ± 5^NS
Number of revertants by plate (Means ± SD), TA102 (S. typhimurium TA102; without S9 mix, 0.4 μg/plate): 319 ± 12^NS
Number of revertants by plate (Means ± SD), TA102 (S. typhimurium TA102; without S9 mix, 0.6 μg/plate): 308 ± 10^NS
Number of revertants by plate (Means ± SD), TA102 (S. typhimurium TA102; without S9 mix, 0.8 μg/plate): 325 ± 13^NS
Number of revertants by plate (Means ± SD), TA102 (S. typhimurium TA102; without S9 mix, 1 μg/plate): 318 ± 10^NS
Number of revertants by plate (Means ± SD), TA100 (S. typhimurium TA100; [4]): 185 ± 8
Number of revertants by plate (Means ± SD), TA100 (S. typhimurium TA100; [5]): 183 ± 7^NS
Number of revertants by plate (Means ± SD), TA100 (S. typhimurium TA100; [6]): 172 ± 6^NS
Number of revertants by plate (Means ± SD), TA100 (S. typhimurium TA100; [7]): 177 ± 4^NS
Number of revertants by plate (Means ± SD), TA100 (S. typhimurium TA100; without S9 mix, 0.4 μg/plate): 189 ± 8
Number of revertants by plate (Means ± SD), TA100 (S. typhimurium TA100; without S9 mix, 0.6 μg/plate): 192 ± 9^NS
Number of revertants by plate (Means ± SD), TA100 (S. typhimurium TA100; without S9 mix, 0.8 μg/plate): 215 ± 13^NS
Number of revertants by plate (Means ± SD), TA100 (S. typhimurium TA100; without S9 mix, 1 μg/plate): 196 ± 14^NS
in vitro micronucleus assay result (clastogenic and/or aneugenic activities) (CHO-K1 cells [1]): negative results
MNC-M (mean of micronucleated cell rates) (CHO-K1 cells [1]; 10 μM): 9.5 ± 0.7 ‰
MNC-M (mean of micronucleated cell rates) (CHO-K1 cells [1]; 50 μM): 10 ± 1.4 ‰
MNC-M (mean of micronucleated cell rates) (CHO-K1 cells [1]; 100 μM): 11 ± 1.4 ‰
IC50 (Plasmodium falciparum W2): 8.6 ± 1 nM
BI (binucleated cells) (CHO-K1 cells [2]; 5 μM): 417
CBPI (Cytokinesis-Blocked Proliferative Index) (CHO-K1 cells [2]; 5 μM): 1.83
CI % (cytostasis index) (CHO-K1 cells [2]; 5 μM): 8%
MNC1 (micronucleated cell rate) (CHO-K1 cells [2]; 5 μM): 10 ‰
MNC2 (micronucleated cell rate) (CHO-K1 cells [2]; 5 μM): 9 ‰
MNC-M (mean of micronucleated cell rates) (CHO-K1 cells [2]; 5 μM): 9.5 ± 0.7 ‰
MONO (mononucleated cells) (CHO-K1 cells [2]; 5 μM): 83
BI (binucleated cells) (CHO-K1 cells [2]; 10 μM): 323
CBPI (Cytokinesis-Blocked Proliferative Index) (CHO-K1 cells [2]; 10 μM): 1.64
CI % (cytostasis index) (CHO-K1 cells [2]; 10 μM): 29%
MNC1 (micronucleated cell rate) (CHO-K1 cells [2]; 10 μM): 9 ‰
MNC2 (micronucleated cell rate) (CHO-K1 cells [2]; 10 μM): 11 ‰
MNC-M (mean of micronucleated cell rates) (CHO-K1 cells [2]; 10 μM): 10 ± 1.4 ‰
MONO (mononucleated cells) (CHO-K1 cells [2]; 10 μM): 177
BI (binucleated cells) (CHO-K1 cells [2]; 50 μM): 226
CBPI (Cytokinesis-Blocked Proliferative Index) (CHO-K1 cells [2]; 50 μM): 1.46
CI % (cytostasis index) (CHO-K1 cells [2]; 50 μM): 52%
MNC1 (micronucleated cell rate) (CHO-K1 cells [2]; 50 μM): 10 ‰
MNC2 (micronucleated cell rate) (CHO-K1 cells [2]; 50 μM): 12 ‰
MNC-M (mean of micronucleated cell rates) (CHO-K1 cells [2]; 50 μM): 11 ± 1.4 ‰
MONO (mononucleated cells) (CHO-K1 cells [2]; 50 μM): 274
Number of revertants by plate (Means ± SD), TA98 (S. typhimurium TA98; [4]): 28 ± 3^NS
Number of revertants by plate (Means ± SD), TA98 (S. typhimurium TA98; [5]): 25 ± 5^NS
Number of revertants by plate (Means ± SD), TA98 (S. typhimurium TA98; [6]): 31 ± 6^NS
Number of revertants by plate (Means ± SD), TA98 (S. typhimurium TA98; [7]): 25 ± 3^NS
Number of revertants by plate (Means ± SD), TA98 (S. typhimurium TA98; without S9 mix, 0.4 μg/plate): 30 ± 4^NS
Number of revertants by plate (Means ± SD), TA98 (S. typhimurium TA98; without S9 mix, 0.6 μg/plate): 28 ± 8^NS
Number of revertants by plate (Means ± SD), TA98 (S. typhimurium TA98; without S9 mix, 0.8 μg/plate): 31 ± 6^NS
Number of revertants by plate (Means ± SD), TA98 (S. typhimurium TA98; without S9 mix, 1 μg/plate): 24 ± 5^NS
Number of revertants by plate (Means ± SD), TA1535 (S. typhimurium TA1535; [4]): 29 ± 8^NS
Number of revertants by plate (Means ± SD), TA1535 (S. typhimurium TA1535; [5]): 29 ± 9^NS
Number of revertants by plate (Means ± SD), TA1535 (S. typhimurium TA1535; [6]): 32 ± 8^NS
Number of revertants by plate (Means ± SD), TA1535 (S. typhimurium TA1535; [7]): 27 ± 4^NS
Number of revertants by plate (Means ± SD), TA1535 (S. typhimurium TA1535; without S9 mix, 0.4 μg/plate): 25 ± 6^NS
Number of revertants by plate (Means ± SD), TA1535 (S. typhimurium TA1535; without S9 mix, 0.6 μg/plate): 30 ± 5^NS
Number of revertants by plate (Means ± SD), TA1535 (S. typhimurium TA1535; without S9 mix, 0.8 μg/plate): 31 ± 4^NS
Number of revertants by plate (Means ± SD), TA1535 (S. typhimurium TA1535; without S9 mix, 1 μg/plate): 26 ± 6^NS
IC50 [3]: 52.4 ± 1.7 nM
mutagenic activity in Salmonella strains (revertant rates) (Salmonella strains): No significant increase in revertant rates
